This is an account of results in patent US8076487B2, “Pyridone derivative and herbicide” (Kumiai Chemical Industry Co., Ltd., priority 2006, dated 2011).

What all share (assay type): in vivo
The test system of test [1] is barnyardgrass (Echinochloa crus-galli (L.) P. Beauv. var. crus-galli). As to the kind of experiment: Test Example 2: herbicidal effect by soil application to upland field. The conditions noted are these: soil surface spray, upland field soil, 1,000 g active ingredient per hectare, 21st day after application. In outline: (§1)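 Herbicidal activity was graded on a standard scale on day 21 after soil application. The covered, freshly sown pots of field soil received an aqueous wettable-powder spray delivering 1,000 g active ingredient/ha at 1,000 liters/ha and were kept in a greenhouse.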

The test system of test [2] is slender amaranth (Amaranthus viridis L.). The test is described as above. The conditions noted are these: soil surface spray, upland field soil, 1,000 g active ingredient per hectare, 21st day after application. In outline: as §1
In test [3] the test system is velvetleaf (Abutilon theophrasti medicus). The description is as above. The conditions noted are these: soil surface spray, upland field soil, 1,000 g active ingredient per hectare, 21st day after application. In outline: as §1
The test system of test [4] is green foxtail (Setaria viridis (L.) P. Beauv.). The description is as above. The conditions noted are these: soil surface spray, upland field soil, 1,000 g active ingredient per hectare, 21st day after application. In outline:
as §1

The test system of test [5] is barnyardgrass (Echinochloa crus-galli (L.) P. Beauv. var. crus-galli). As to the kind of experiment: Test Example 3: herbicidal effect by application to upland field (foliage treatment). The note with it: foliage treatment, 1,000 g active ingredient per 1 hectare, 14th day after application, greenhouse. In outline: (§2)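 Plants were sown in field soil and raised in a greenhouse for two weeks before foliar spraying. A water-diluted wettable powder was applied at 1,000 g active ingredient per hectare in 1,000 liters per hectare. Herbicidal effect was scored on a standard scale 14 days later.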

Test [6] has as its system slender amaranth (Amaranthus viridis L.). The test is described as above. The conditions noted are these: foliage treatment, 1,000 g active ingredient per 1 hectare, 14th day after application, greenhouse. In outline:
as §2

For test [7], the system named is velvetleaf (Abutilon theophrasti medicus). Described as above. The note with it: foliage treatment, 1,000 g active ingredient per 1 hectare, 14th day after application, greenhouse. In outline:
as §2

Test [8] has as its system green foxtail (Setaria viridis (L.) P. Beauv.). The test is described as above. The conditions noted are these: foliage treatment, 1,000 g active ingredient per 1 hectare, 14th day after application, greenhouse. In outline: as §2
For test [9], the system named is Japanese bulrush (Scirpus juncoides Roxb.). As to the kind of experiment: Test Example 1: herbicidal effect by soil application to paddy field. The conditions noted are these: paddy field soil application; active ingredient 1,000 g per 1 hectare; wettable powder added dropwise to water surface the day after sowing; examined on the 21st day after application. In outline:
(§3)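 Plants were sown in flooded (3 cm) paddy soil and evaluated for herbicidal effect 21 days after soil application in a greenhouse.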

The test system of test [10] is heartshape false pickerelweed (Monochoria vaginalis (Burm.f.) C.Presl). Described as above. The note with it: paddy field soil application; active ingredient 1,000 g per 1 hectare; wettable powder added dropwise to water surface the day after sowing; examined on the 21st day after application. In outline:
as §3

Test [11] relates to early watergrass (Echinochloa oryzicola Vasing). The test is described as above. The note with it: paddy field soil application; active ingredient 1,000 g per 1 hectare; wettable powder added dropwise to water surface the day after sowing; examined on the 21st day after application. In outline: as §3

Molecules are shown by their SMILES.

Consider `CCCS(=O)(=O)Oc1c(C(=O)c2ccc(C(F)(F)F)n(C)c2=O)cnn1C` [IV-196], for which the “herbicidal effect (index), Barnyardgrass” value in test [1] was 5 (90% or more of herbicidal effect and crop phytotoxicity). The “herbicidal effect (index), Slender Amaranth” value in test [2] was 5 (90% or more of herbicidal effect and crop phytotoxicity). Besides, the “herbicidal effect (index), Velvetleaf” value in test [3] is 5 (90% or more of herbicidal effect and crop phytotoxicity). Further, the “herbicidal effect (index), Green Foxtail” value in test [4] was 4 (70 to less than 90% of herbicidal effect and crop phytotoxicity). Besides, the “herbicidal effect, Barnyardgrass” value in test [5] was 4 (70 to less than 90% of herbicidal effect and crop phytotoxicity). Further, in [6], the “herbicidal effect, Slender Amaranth” value is 5 (90% or more of herbicidal effect and crop phytotoxicity). In test [7], the “herbicidal effect, Velvetleaf” value is 5 (90% or more of herbicidal effect and crop phytotoxicity). Further, in test [8], the “herbicidal effect, Green Foxtail” value is 3 (50 to less than 70% of herbicidal effect and crop phytotoxicity). The “herbicidal effect, Scirpus juncoides Roxb.” value in test [9] was 5 (90% or more of herbicidal effect and crop phytotoxicity). Also, the “herbicidal effect, Monochoria vaginalis (Burm. f.) C. Presl” value (“herbicidal effect, Monochoria vaginalis” for short) in test [10] is 5 (90% or more of herbicidal effect and crop phytotoxicity). For the same compound, the “herbicidal effect, Echinochloa oryzicola Vasing” value in [11] is 5 (90% or more of herbicidal effect and crop phytotoxicity).
Regarding `Cn1ncc(C(=O)c2ccc(C(F)(F)F)n(C)c2=O)c1OC(=O)c1ccccc1` [IV-197], the “herbicidal effect (index), Barnyardgrass” value in test [1] was 4 (70 to less than 90% of herbicidal effect and crop phytotoxicity). In [2], the “herbicidal effect (index), Slender Amaranth” value was 5 (90% or more of herbicidal effect and crop phytotoxicity). The “herbicidal effect (index), Velvetleaf” value in test [3] is 5 (90% or more of herbicidal effect and crop phytotoxicity). The “herbicidal effect (index), Green Foxtail” value in test [4] is 4 (70 to less than 90% of herbicidal effect and crop phytotoxicity). Further, the “herbicidal effect, Barnyardgrass” value in test [5] is 4 (70 to less than 90% of herbicidal effect and crop phytotoxicity). In addition, the “herbicidal effect, Slender Amaranth” value in [6] is 5 (90% or more of herbicidal effect and crop phytotoxicity). Moreover, the “herbicidal effect, Velvetleaf” value in test [7] is 5 (90% or more of herbicidal effect and crop phytotoxicity). Further, the “herbicidal effect, Green Foxtail” value in [8] is 4 (70 to less than 90% of herbicidal effect and crop phytotoxicity). Also, the “herbicidal effect, Scirpus juncoides Roxb.” value in [9] is 5 (90% or more of herbicidal effect and crop phytotoxicity). For the same compound, in test [10], the “herbicidal effect, Monochoria vaginalis” value is 5 (90% or more of herbicidal effect and crop phytotoxicity). The “herbicidal effect, Echinochloa oryzicola Vasing” value in test [11] is 5 (90% or more of herbicidal effect and crop phytotoxicity).
As for `Cn1ncc(C(=O)c2ccc(C(F)(F)F)n(C)c2=O)c1OC(=O)c1ccc(C(C)(C)C)cc1` [IV-198], the “herbicidal effect (index), Barnyardgrass” value in test [1] is 3 (50 to less than 70% of herbicidal effect and crop phytotoxicity). In addition, the “herbicidal effect (index), Slender Amaranth” value in [2] was 5 (90% or more of herbicidal effect and crop phytotoxicity). Besides, the “herbicidal effect (index), Velvetleaf” value in test [3] was 4 (70 to less than 90% of herbicidal effect and crop phytotoxicity). For the same compound, the “herbicidal effect (index), Green Foxtail” value in [4] was 3 (50 to less than 70% of herbicidal effect and crop phytotoxicity). Besides, the “herbicidal effect, Barnyardgrass” value in test [5] was 4 (70 to less than 90% of herbicidal effect and crop phytotoxicity). Besides, the “herbicidal effect, Slender Amaranth” value in [6] was 5 (90% or more of herbicidal effect and crop phytotoxicity). In addition, the “herbicidal effect, Velvetleaf” value in test [7] is 5 (90% or more of herbicidal effect and crop phytotoxicity). In test [8], the “herbicidal effect, Green Foxtail” value is 3 (50 to less than 70% of herbicidal effect and crop phytotoxicity). Besides, the “herbicidal effect, Scirpus juncoides Roxb.” value in [9] is 5 (90% or more of herbicidal effect and crop phytotoxicity). Besides, the “herbicidal effect, Monochoria vaginalis” value in test [10] is 5 (90% or more of herbicidal effect and crop phytotoxicity). The “herbicidal effect, Echinochloa oryzicola Vasing” value in test [11] was 5 (90% or more of herbicidal effect and crop phytotoxicity).
For `Cn1ncc(C(=O)c2ccc(C(F)(F)F)n(C)c2=O)c1OC(=O)OCc1ccccc1` [IV-199], the “herbicidal effect (index), Barnyardgrass” value in test [1] is 5 (90% or more of herbicidal effect and crop phytotoxicity). The “herbicidal effect (index), Slender Amaranth” value in test [2] is 5 (90% or more of herbicidal effect and crop phytotoxicity). In test [3], the “herbicidal effect (index), Velvetleaf” value was 5 (90% or more of herbicidal effect and crop phytotoxicity). Moreover, the “herbicidal effect (index), Green Foxtail” value in [4] is 4 (70 to less than 90% of herbicidal effect and crop phytotoxicity). The “herbicidal effect, Barnyardgrass” value in [5] is 4 (70 to less than 90% of herbicidal effect and crop phytotoxicity). Also, the “herbicidal effect, Slender Amaranth” value in [6] was 5 (90% or more of herbicidal effect and crop phytotoxicity). Moreover, the “herbicidal effect, Velvetleaf” value in test [7] is 5 (90% or more of herbicidal effect and crop phytotoxicity). Also, the “herbicidal effect, Green Foxtail” value in [8] was 3 (50 to less than 70% of herbicidal effect and crop phytotoxicity). Moreover, the “herbicidal effect, Scirpus juncoides Roxb.” value in test [9] was 5 (90% or more of herbicidal effect and crop phytotoxicity). Also, the “herbicidal effect, Monochoria vaginalis” value in [10] was 5 (90% or more of herbicidal effect and crop phytotoxicity). In test [11], the “herbicidal effect, Echinochloa oryzicola Vasing” value is 5 (90% or more of herbicidal effect and crop phytotoxicity).
For the compound `Cn1ncc(C(=O)c2ccc(C(F)(F)F)n(C)c2=O)c1OC(=O)OCc1ccc(Cl)cc1` [IV-200], in test [1], the “herbicidal effect (index), Barnyardgrass” value was 5 (90% or more of herbicidal effect and crop phytotoxicity). The “herbicidal effect (index), Slender Amaranth” value in test [2] was 5 (90% or more of herbicidal effect and crop phytotoxicity). Also, in [3], the “herbicidal effect (index), Velvetleaf” value was 5 (90% or more of herbicidal effect and crop phytotoxicity). Further, the “herbicidal effect (index), Green Foxtail” value in test [4] was 4 (70 to less than 90% of herbicidal effect and crop phytotoxicity). Moreover, the “herbicidal effect, Barnyardgrass” value in [5] was 4 (70 to less than 90% of herbicidal effect and crop phytotoxicity). In addition, in [6], the “herbicidal effect, Slender Amaranth” value is 5 (90% or more of herbicidal effect and crop phytotoxicity). Also, in [7], the “herbicidal effect, Velvetleaf” value is 5 (90% or more of herbicidal effect and crop phytotoxicity). The “herbicidal effect, Green Foxtail” value in test [8] is 3 (50 to less than 70% of herbicidal effect and crop phytotoxicity). The “herbicidal effect, Scirpus juncoides Roxb.” value in test [9] was 5 (90% or more of herbicidal effect and crop phytotoxicity). The “herbicidal effect, Monochoria vaginalis” value in test [10] is 5 (90% or more of herbicidal effect and crop phytotoxicity). Besides, the “herbicidal effect, Echinochloa oryzicola Vasing” value in [11] was 5 (90% or more of herbicidal effect and crop phytotoxicity).
For the compound `CCCn1c(C(F)(F)F)ccc(C(=O)c2cnn(CC)c2OS(=O)(=O)CCC)c1=O` [IV-202], the “herbicidal effect (index), Barnyardgrass” value in test [1] was 5 (90% or more of herbicidal effect and crop phytotoxicity). The “herbicidal effect (index), Slender Amaranth” value in test [2] was 5 (90% or more of herbicidal effect and crop phytotoxicity). Moreover, in test [3], the “herbicidal effect (index), Velvetleaf” value is 5 (90% or more of herbicidal effect and crop phytotoxicity). Moreover, the “herbicidal effect (index), Green Foxtail” value in test [4] was 5 (90% or more of herbicidal effect and crop phytotoxicity). In [5], the “herbicidal effect, Barnyardgrass” value is 5 (90% or more of herbicidal effect and crop phytotoxicity). For the same compound, the “herbicidal effect, Slender Amaranth” value in test [6] was 5 (90% or more of herbicidal effect and crop phytotoxicity). In addition, the “herbicidal effect, Velvetleaf” value in test [7] was 5 (90% or more of herbicidal effect and crop phytotoxicity). Further, in test [8], the “herbicidal effect, Green Foxtail” value is 5 (90% or more of herbicidal effect and crop phytotoxicity). Also, the “herbicidal effect, Scirpus juncoides Roxb.” value in test [9] is 5 (90% or more of herbicidal effect and crop phytotoxicity). The “herbicidal effect, Monochoria vaginalis” value in [10] was 5 (90% or more of herbicidal effect and crop phytotoxicity). Moreover, in test [11], the “herbicidal effect, Echinochloa oryzicola Vasing” value was 5 (90% or more of herbicidal effect and crop phytotoxicity).
